ChEMBL document CHEMBL1921682, “Molecular properties prediction and synthesis of novel 1,3,4-oxadiazole analogues as potent antimicrobial and antitubercular agents” (Bioorg Med Chem Lett, 2011)
Values after ≈ are worked out from the molar mass of the structure shown.

Experiments:
[1] = test system: Mycobacterium tuberculosis; assay: microbe, parasite or virus in culture
[2] = test system: Mycobacterium tuberculosis; format: functional

## Cc1c(NCc2nnc(-c3ccccc3Cl)o2)c(=O)n(-c2ccccc2)n1C
[1]
  MIC90: 12.7 µM (≈ 5.01 µg/mL)

## Cc1c(NCc2nnc(-c3ccc(Cl)cc3)o2)c(=O)n(-c2ccccc2)n1C
[1]
  MIC90: 12.7 µM (≈ 5.01 µg/mL)

## Cc1c(NCc2nnc(-c3ccc(N)cc3)o2)c(=O)n(-c2ccccc2)n1C
[2]
  Ratio: 1.4
[1]
  MIC90: 8.29 µM (≈ 3.12 µg/mL)

## Cc1c(NCc2nnc(-c3ccncc3)o2)c(=O)n(-c2ccccc2)n1C
[2]
  Ratio: 7.6
[1]
  MIC90: 1.52 µM (≈ 0.551 µg/mL)

## Cc1c(NCc2nnc(-c3ccccc3)o2)c(=O)n(-c2ccccc2)n1C
[1]
  MIC90: 13.8 µM (≈ 4.99 µg/mL)

## Cc1ccc(-c2nnc(CNc3c(C)n(C)n(-c4ccccc4)c3=O)o2)cc1
[1]
  MIC90: 13.3 µM (≈ 5 µg/mL)

## Cc1c(NCc2nnc(Cc3ccccc3)o2)c(=O)n(-c2ccccc2)n1C
[1]
  MIC90: > 13.3 µM

## Cc1c(NCc2nnc(COc3ccccc3)o2)c(=O)n(-c2ccccc2)n1C
[1]
  MIC90: 12.8 µM (≈ 5 µg/mL)

## Cc1c(NCc2nnc(-c3cccs3)o2)c(=O)n(-c2ccccc2)n1C
[1]
  MIC90: 13.6 µM (≈ 5 µg/mL)

## NNC(=O)c1ccncc1 [ISONIAZID]
[1]
  MIC90: 11.6 µM (≈ 1.59 µg/mL)
